Key:
[1] = test system: Plasmodium falciparum; assay: ST_JUDE: Plasmodium falciparum 3D7 EC50 (uM) as measured by SYBR green dye; format: functional, organism-based
[2] = test system: Plasmodium falciparum; assay: ST_JUDE: Plasmodium falciparum K1 EC50 (uM) as measured by SYBR green dye; format: functional, organism-based

Compound	EC50 [1] [µM]	EC50 [2] [µM]
Cc1cc(Nc2ccc(C)c(F)c2)n2ncnc2n1	> 15	> 15
CCC(C)c1ccc(O)c(NC(=O)c2cncc(Br)c2)c1 (stereo unspecified)	2.15	1.59
O=C(CSc1nc(-c2ccccc2Cl)ns1)Nc1cccc(Cl)c1	1.39	1.7
COc1ccc(C2C(C(=O)Nc3cc(C)ccc3OC)c3ccccc3C(=O)N2C)cc1 (stereo unspecified)	2.1	3.73
C=CCOc1ccc(C(=O)Nc2nonc2-c2ccc(OC)c(OC)c2)cc1	0.591	0.689
COc1cc2c(cc1OC)C(C(=O)Nc1ccc(C(F)(F)F)cc1)C(c1cccs1)N(C)C2=O (stereo unspecified)	2.34	3.05
CCCCC(=O)NC(c1cccs1)c1cc(Cl)c2cccnc2c1O (stereo unspecified)	> 15	> 15
CCN1/C(=C/c2cccc[n+]2C)Sc2ccccc21	4.47	> 15
COc1cccc(C(=O)NC(c2ccc(Cl)cc2)c2cc(Cl)c3cccnc3c2O)c1 (stereo unspecified)	2.01	1.66
CC(C)CCNCC(O)Cn1c2ccc(Br)cc2c2cc(Br)ccc21 (stereo unspecified)	0.492	0.149
Cc1cc(/C=N/n2cnnc2)c(C)n1-c1ccc(Br)cc1	> 15	> 15
CCO/C(O)=C1\C(C)=NC2=C(C(=O)CC(c3ccc(OC)c(OC)c3)C2)C1c1ccc(SC)cc1 (stereo unspecified)	3.2	3.18
CC(=O)CCc1ccc(OCCN2CCOCC2)cc1	> 15	> 15
CCc1ccc(S(=O)(=O)Nc2ccc(Nc3nc(C)cc(Nc4ccc(OC)cc4)n3)cc2)cc1	0.577	9.28
CCCCN(CC)CCNC(=O)c1cc2cc3ccc(C)cc3nc2o1	> 15	4.09
Cc1cc(O)nc2nnc(SCC(=O)Nc3cccc(Cl)c3)n12	> 15	7.29
COc1ccc(S(=O)(=O)Nc2cc3sc(=O)oc3c3ccccc23)cc1	> 15	> 15
CCOC(=O)C(NC(C)=O)(Nc1ccc(S(=O)(=O)Nc2cc(C)on2)cc1)C(F)(F)F (stereo unspecified)	2.04	4.56
COC(CNC(=O)c1ccc(-n2c(C)cc3c2CCCC3)cc1)OC	> 15	> 15
O=C(Nc1ccc(Cl)cc1)Nc1ccc(F)c(Cl)c1	3.72	3.57
C[N+]1(CCCCCCCCCCCO)CCCCC1	> 15	> 15
COc1ccc(-c2cc(=O)oc3c(OC)c(OC)ccc23)cc1	> 15	> 15

Compound	EC50 [1] [µM]	EC50 [2] [µM]
Cc1ccc(Nc2cc(C)nc(Nc3ccc(NS(=O)(=O)c4ccc(C)cc4)cc3)n2)cc1	0.621	7.97
Cc1ccc(N2C(=O)CS(=O)(=O)C23C(=O)N(Cc2ccccc2Cl)c2ccccc23)cc1C (stereo unspecified)	1.33	2.43
COc1ccc2c(c1)CN(Cc1ccc(F)cc1)CO2	2.13	0.372
Oc1c(C(c2ccc(Cl)cc2)N2CCOCC2)ccc2cccnc12 (stereo unspecified)	2.19	2.97
COc1ccc(CN2CCNC(=O)C2CC(=O)NCCOC(C)C)c(OC)c1 (stereo unspecified)	> 15	> 15
CCN1CCN(c2cc(C)c3cc(NC(=S)NCCCN4CCN(c5cccc(Cl)c5)CC4)ccc3n2)CC1	2.24	4.24
COCc1cc(CN2CCN(c3ccccc3OC)CC2)c(O)c2ncccc12	4.19	9.06
CCOc1ccc(-c2nonc2NC(=O)c2cccc(C)c2)cc1OCC	0.0619	0.0832
CCN(CC)CCCNC(=O)C1CCN(c2nc3c(C)cc(C)cc3s2)CC1	> 15	> 15
COc1ccccc1/N=C1\C=C(NS(=O)(=O)c2ccc(Cl)cc2)c2ccccc2C1=O	0.268	0.267
Cc1cc(N2CCCC2)nc(Nc2ccc(NS(=O)(=O)c3ccc(Cl)cc3)cc2)n1	2.12	> 15
CCCCC(O)(c1ccc(CC)cc1)C(CN1CCOCC1)c1ccccc1 (stereo unspecified)	3.9	3.44
O=C(c1ccco1)N(Cc1ccccc1)c1cccc([N+](=O)[O-])c1	> 15	> 15
Cc1ccc(/C(O)=C/C=N/c2cc([N+](=O)[O-])ccc2O)cc1	> 15	1.69
C#CCSc1c(CCCC)cnc2c1c(=O)n(C)c(=O)n2C	> 15	> 15
CCS(=O)(=O)Nc1ccc(C2=NN(C(=O)c3ccco3)C(c3ccc(F)cc3)C2)cc1 (stereo unspecified)	> 15	6.12
COc1ccc(NC(=O)C2c3ccccc3C(=O)N(C)C2c2cccs2)cc1Cl (stereo unspecified)	1.07	1.35
Cc1ccc(CN2CCN(C3CCCCC3)C(CCO)C2)cc1C (stereo unspecified)	> 15	> 15
Cc1ccccc1NC(=O)C1c2ccccc2C(=O)N2CCc3ccccc3C12 (stereo unspecified)	4.15	> 15
COc1ccc(Br)cc1C(Nc1ccccn1)c1cc(Cl)c2cccnc2c1O (stereo unspecified)	> 15	2.95
Cc1ccc(CN2CCN(c3nc4c(c(=O)[nH]c(=O)n4C)n3Cc3ccc(C)cc3)CC2)cc1	> 15	> 15
O=C(Nc1nc(-c2ccccn2)cs1)c1ccccc1Br	4.53	2.05

Compound	EC50 [1] [µM]	EC50 [2] [µM]
CC(=O)NC(c1ccc(Cl)cc1)c1ccc2cccnc2c1O (stereo unspecified)	1.93	2.15
CCOc1cc(Br)c(C2C(C#N)=C(N)Oc3cc(O)ccc32)cc1OCC (stereo unspecified)	3.8	1.52
CC1CCN(C(=O)c2cc(COc3ccc(F)cc3F)on2)CC1	> 15	> 15
O=[N+]([O-])c1nonc1NCn1nnc2ccccc21	5.07	7.28
CCOC(=O)c1ccc(NC2=C(n3nnc4ccccc43)C(=O)c3ccccc3C2=O)cc1	3.23	0.678
CCN(CC)CCNC(=O)c1ccc2c(c1)sc1nc(-c3ccccc3)cn12	1.03	1.5
N=C(N)N/N=C/c1ccc(OCc2ccc(Cl)cc2Cl)cc1	4.9	4.27
Cn1c(=O)oc2cc(S(=O)(=O)N3CCCC(C(=O)N4CCN(C(c5ccccc5)c5ccccc5)CC4)C3)ccc21 (stereo unspecified)	3.56	1.61
CCC1(C)CC(CCN)(c2ccc(C)cc2)CCO1 (stereo unspecified)	4.8	> 15
Cc1ccc(Nc2nc(N)c3ccccc3n2)cc1C	1.33	3.91
Cc1cccc(NC(=O)Nc2ccc(S(=O)(=O)C(F)(F)F)cc2)c1C	1.32	1.22
CCCCOc1cccc(C(=O)Nc2ccc(CN3CCCCC3)cc2)c1	> 15	> 15
O=C(Nc1nnc(-c2ccc3c(c2)CCCC3)o1)c1ccc(F)cc1	> 15	> 15
Oc1c(Cl)cc(Cl)cc1CN1CCN(c2ccccc2F)CC1	1.85	0.861
CCc1ccc(C2C3=C(O)CC(C)(C)CC3=Nc3cc(OC)c(OC)c(OC)c32)cc1 (stereo unspecified)	> 15	4.85
CCCCc1ccc(NC(=S)NN2CCN(C)CC2)cc1	> 15	> 15
CCCCOCCCN1C(=O)CSC1c1cnccc1-c1ccc(Br)cc1 (stereo unspecified)	2.38	1.76
CCCN1CCN(CCCNC(=O)c2ccc3c(c2)sc2nc(-c4ccc(C)cc4)cn23)CC1	2.02	4.65
CCOC(=O)C1=CN(Cc2ccc(F)cc2)C=C(C(=O)OCC)C1c1cc(OC)c(OC)c(OC)c1	> 15	0.521
Cc1cc(C)c2sc(NNC(=O)c3ccc(S(=O)(=O)N(C)C)cc3)nc2c1	5.94	4.89
COc1ccccc1Nc1nc(NCc2ccccc2)c2ccccc2n1	3.97	11.8
CC(C)CC(C)N1CCC(n2nccc2NC(=O)Nc2ccccc2Cl)CC1 (stereo unspecified)	8.23	> 15

Compound	EC50 [1] [µM]	EC50 [2] [µM]
COc1ccccc1C(=O)Nc1nnc(Cc2nc3ccccc3[nH]2)s1	> 15	> 15
O=[N+]([O-])c1ccc(C2N(Cc3ccccc3)CCN2Cc2ccccc2)cc1	> 15	> 15
CCCCNC(=O)CSCc1cnn(-c2ccccc2)c1-n1cccc1	0.506	4.06
COc1ccc(CC(=O)N2CC(=O)Nc3ccc(Cl)cc3C2c2ccc(F)cc2)cc1 (stereo unspecified)	> 15	> 15
CCc1cc(-c2[nH]nc(C)c2Oc2ccccc2)c(O)cc1OC(C)C	3.66	1.46
COc1ccc(-c2cn3c(n2)sc2cc(C(=O)NCCCN4CCN(C)CC4)ccc23)cc1	2.04	6.14
O=C1C(Nc2ccc(I)cc2)=C(N2CCCCC2)C(=O)c2ccccc21	0.153	0.395
CCCCN1COc2ccc3c(-c4ccccc4)cc(=O)oc3c2C1	1.92	0.598
COc1cc(-c2nc(-c3ccccc3)c(-c3ccccc3)[nH]2)cc(OC)c1OC	> 15	> 15
C=CCN1C(=S)NC2c3cc(Br)ccc3OC1(C)C2C (stereo unspecified)	2.58	3.1
CC1(C)N=C(N)N=C(N)N1c1ccc(F)cc1	0.095	2.31
CCCC(=O)C1=C(c2cccc(OC)c2)N(C(=O)CCC)n2cnnc2S1	> 15	> 15
O=C1CC(c2ccc([N+](=O)[O-])cc2)C2=C(CC(c3cccs3)CC2=O)N1 (stereo unspecified)	4.89	2.74
OCCNc1nc(Nc2ccc(Cl)c(Cl)c2)nc2ccccc12	> 15	4.32
CCCN1CC=C2C(C#N)=C(N)C(C#N)(C#N)C(c3ccccc3C(F)(F)F)C2C1 (stereo unspecified)	1.12	0.479
CCOC(=O)c1cccc(NC(=O)CC2C(=O)N(c3ccc(Cl)cc3)C(=O)N2C2CCCC2)c1 (stereo unspecified)	1.42	2.7
Cc1ccccc1Nc1nc(NCc2ccco2)c2ccccc2n1	3.55	> 15
Cc1n(CC(O)COc2cccc(Cl)c2)c2ccccc2[n+]1C (stereo unspecified)	> 15	> 15
CCc1ccccc1NC(=O)c1csc2c1CCC(C)C2 (stereo unspecified)	> 15	> 15
O=C(c1cccc(C(F)(F)F)c1)N1CCN(c2ccc(N3CCCCCC3)nn2)CC1	> 15	> 15
CCOC(=O)c1ccc(NC(=O)Cc2csc(NC(=O)Nc3ccccc3)n2)cc1	> 15	> 15
CCN(CC)CC(O)COc1ccccc1C(=O)CCc1ccccc1 (stereo unspecified)	2.17	1.08
